Experimental data taken from ChEMBL document CHEMBL5390294, “Pseudoceranoids A-J, Sesquiterpene-Based Meroterpenoids with Cytotoxicity from the Sponge Pseudoceratina purpurea” (J Nat Prod, 2023).

Experiments:
ASPC1 = assay: Cytotoxicity against human ASPC1 cells assessed as inhibition of cell growth by SRB assay; assay type: functional, cell-based
MDA-MB-231 = assay: Cytotoxicity against human MDA-MB-231 cells assessed as inhibition of cell growth by SRB assay; assay type: functional, cell-based
K562 = assay: Cytotoxicity against human K562 cells assessed as inhibition of cell growth by MTT assay; assay type: functional, cell-based
H69AR = assay: Cytotoxicity against human NCI-H69AR cells assessed as inhibition of cell growth by SRB assay; assay type: functional, cell-based
[1] = Cytotoxicity against human L02 cells assessed as inhibition of cell growth by SRB assay; assay type: toxicity, cell-based

COC1=CC(=O)C=C(C[C@]2(C)[C@H](C)CC[C@@H]3C(C)=CCC[C@@H]32)C1=O
IC50 (ASPC1): > 30 µM
IC50 (MDA-MB-231): > 30 µM
IC50 (K562): > 30 µM
IC50 (H69AR): > 30 µM
IC50 [1]: > 30 µM

COC1=CC(=O)C2=C(C[C@@H]3[C@@]4(C)CCCC(C)(C)[C@@H]4CC[C@@]23C)C1=O
IC50 (ASPC1): > 30 µM
IC50 (MDA-MB-231): > 30 µM
IC50 (K562): > 30 µM
IC50 (H69AR): > 30 µM
IC50 [1]: > 30 µM

COC1=CC(=O)[C@H](C[C@@]2(C)CC[C@]3(C)C(C)=CCC[C@H]3[C@H]2C)[C@H]1O
IC50 (ASPC1): > 30 µM
IC50 (MDA-MB-231): > 30 µM
IC50 (K562): > 30 µM
IC50 (H69AR): > 30 µM
IC50 [1]: > 30 µM

COc1cc(O)cc2c1O[C@]1(C)CC[C@H]3C(C)(C)CCC[C@]3(C)[C@H]1C2
IC50 (ASPC1): > 30 µM
IC50 (MDA-MB-231): > 30 µM
IC50 (K562): 14 µM
IC50 (H69AR): > 30 µM
IC50 [1]: > 30 µM

COC(=O)/C=C1/OC(=O)C(C[C@@]2(C)CC[C@]3(C)C(C)=CCC[C@H]3[C@H]2C)=C1O
IC50 (ASPC1): > 30 µM
IC50 (MDA-MB-231): > 30 µM
IC50 (K562): > 30 µM
IC50 (H69AR): > 30 µM
IC50 [1]: > 30 µM

COc1cccc2c1C(=O)c1c(O)c3c(c(O)c1C2=O)C[C@@](O)(C(=O)CO)C[C@@H]3O[C@H]1C[C@H](N)[C@H](O)[C@H](C)O1 [DOXORUBICIN]
IC50 (ASPC1): < 1 µM
IC50 (MDA-MB-231): < 1 µM
IC50 (K562): < 1 µM
IC50 (H69AR): < 1 µM

C=C1CCC[C@H]2[C@@H]1CC[C@@H](C)[C@@]2(C)CC1=CC(=O)C=C(OC)C1=O
IC50 (ASPC1): > 30 µM
IC50 (MDA-MB-231): > 30 µM
IC50 (K562): > 30 µM
IC50 (H69AR): > 30 µM
IC50 [1]: > 30 µM

COC1=CC(=O)[C@@H](C[C@@]2(C)CC[C@]3(C)C(C)=CCC[C@H]3[C@H]2C)[C@H]1O
IC50 (ASPC1): > 30 µM
IC50 (MDA-MB-231): > 30 µM
IC50 (K562): > 30 µM
IC50 (H69AR): > 30 µM
IC50 [1]: > 30 µM

COC1=CC(=O)C(O)=C(C[C@@]2(C)CC[C@]3(C)C(C=O)=CCC[C@H]3[C@H]2C)C1=O
IC50 (ASPC1): > 30 µM
IC50 (MDA-MB-231): > 30 µM
IC50 (K562): > 30 µM
IC50 (H69AR): 2.85 µM
IC50 [1]: 12.1 µM

CCCCOC1=CC(=O)C(O)=C(C[C@@]2(C)CC[C@]3(C)C(C)=CCC[C@H]3[C@H]2C)C1=O
IC50 (ASPC1): > 30 µM
IC50 (MDA-MB-231): 9.82 µM
IC50 (K562): 3.01 µM
IC50 (H69AR): 7.74 µM
IC50 [1]: 20.3 µM

COC1=CC(=O)C(O)=C(C[C@@]2(C)CC[C@]3(C)[C@@H](C)C(=O)CC[C@H]3[C@H]2C)C1=O
IC50 (ASPC1): > 30 µM
IC50 (MDA-MB-231): > 30 µM
IC50 (K562): 16.1 µM
IC50 (H69AR): > 30 µM
IC50 [1]: 7.6 µM
